Data: patent US9540323B2 (BRISTOL-MYERS SQUIBB COMPANY, priority 2012, dated 2017)
Where two headings read alike, the source gives them in different places.

How the values were obtained:
[1] = biological target: cloned human P2Y1 receptors (Homo sapiens (Human), UniProt P47900); test: Binding Assay B - Scintillation Proximity Assay (SPA) for P2Y1 binding, [33P] 2MeS-ADP; conditions: read-out: P2Y1 Ki (nM) using binding assay B
Method: Binding Assay B—Scintillation Proximity Assay (SPA) for P2Y1 Binding
A SPA membrane binding assay was used to identify inhibitors of [^33P] […] Reactions were allowed to proceed to completion at room temperature for 1 hour followed by centrifugation of the plate for 5 min. About 40 μL of the aqueous solution was aspirated. Plates were sealed and the [^33P]

[2] = test system: human platelet rich plasma (PRP); test: ADP induced platelet aggregation assay; conditions: Homo sapiens, Platelet, 5 min, read-out: PA IC50 (μM) @ 10 μM ADP, human PRP, 10 μM ADP, AUC at 5 minute
[3] = SPA, 0.3 nM [33P] 2MeS-ADP, Cheng-Prusoff

Chain of cloned human P2Y1 receptors (P47900 whole entry): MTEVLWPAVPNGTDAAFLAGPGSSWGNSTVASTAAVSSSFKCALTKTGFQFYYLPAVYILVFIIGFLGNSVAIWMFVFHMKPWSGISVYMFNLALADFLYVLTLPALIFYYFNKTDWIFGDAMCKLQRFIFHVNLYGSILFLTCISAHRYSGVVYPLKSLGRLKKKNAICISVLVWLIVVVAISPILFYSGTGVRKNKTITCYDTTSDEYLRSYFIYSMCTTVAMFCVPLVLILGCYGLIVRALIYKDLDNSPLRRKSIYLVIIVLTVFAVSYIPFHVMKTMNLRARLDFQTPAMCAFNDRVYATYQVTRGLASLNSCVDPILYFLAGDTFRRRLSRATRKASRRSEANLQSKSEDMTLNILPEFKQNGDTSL

Row | SMILES | Ki [1, 3] [nM] | IC50 [2] [µM] | Ki [1] [nM]
1 | CC1(C)CN(c2ccccc2NC(=O)Nc2ccc(OC(F)(F)F)cc2)c2c(O)cc(F)c(-c3cccc(C#N)c3)c21 [Example 247, 1-(2-(4-(3-Cyanophenyl)-5-fluoro-7-hydroxy-3,3-dimethylindolin-1-yl)phenyl)-3-(4-(trifluoromethoxy)phenyl)urea] | 10 | 0.87 | –
2 | CC1(C)CN(c2ccccc2NC(=O)Nc2ccc(OC(F)(F)F)cc2)c2c(O)cc(F)c(-c3ccc(C#N)cc3)c21 [Example 248, 1-(2-(4-(4-Cyanophenyl)-5-fluoro-7-hydroxy-3,3-dimethylindolin-1-yl)phenyl)-3-(4-(trifluoromethoxy)phenyl)urea] | 7.4 | 0.43 | –
3 | CN(C)Cc1cccc(-c2c(F)cc(O)c3c2C(C)(C)CN3c2ccccc2NC(=O)Nc2ccc(OC(F)(F)F)cc2)c1 [Example 249, 1-(2-(4-(3-((Dimethylamino)methyl)phenyl)-5-fluoro-7-hydroxy-3,3-dimethylindolin-1-yl)phenyl)-3-(4-(trifluoromethoxy)phenyl)urea] | 12.2 | 0.7 | –
4 | C=C(C)c1ccc(-c2c(F)cc(O)c3c2C(C)(C)CN3c2ccccc2NC(=O)Nc2ccc(OC(F)(F)F)cc2)cc1 [Example 250, 1-(2-(5-Fluoro-7-hydroxy-3,3-dimethyl-4-(4-(prop-1-en-2-yl)phenyl)indolin-1-yl)phenyl)-3-(4-(trifluoromethoxy)phenyl)urea] | 29.5 | 0.22 | –
5 | CC1(C)CN(c2ccccc2NC(=O)Nc2ccc(OC(F)(F)F)cc2)c2c(O)cc(F)c(-c3cccc(CN4CCOCC4)c3)c21 [Example 251, 1-(2-(5-Fluoro-7-hydroxy-3,3-dimethyl-4-(3-(morpholinomethyl)phenyl)indolin-1-yl)phenyl)-3-(4-(trifluoromethoxy)phenyl)urea] | 16.9 | 0.93 | –
6 | CC1(C)CN(c2ccccc2NC(=O)Nc2ccc(OC(F)(F)F)cc2)c2c(O)cc(F)c(C3CC3)c21 [Example 252, 1-(2-(4-Cyclopropyl-5-fluoro-7-hydroxy-3,3-dimethylindolin-1-yl)phenyl)-3-(4-(trifluoromethoxy)phenyl)urea] | 18.3 | 0.42 | –
7 | CC(C)n1nc(-c2c(F)cc(O)c3c2C(C)(C)CN3c2ccccc2NC(=O)Nc2nc3ccc(F)cc3s2)cc1C(F)(F)F [Example 253, 1-(2-(5-Fluoro-7-hydroxy-4-(1-isopropyl-5-(trifluoromethyl)-1H-pyrazol-3-yl)-3,3-dimethylindolin-1-yl)phenyl)-3-(6-fluorobenzo[d]thiazol-2-yl)urea] | 33.4 | 0.12 | –
8 | CC(C)(C)c1nc(-c2c(F)cc(O)c3c2C(C)(C)CN3c2ccccc2NC(=O)Nc2nc3ccc(F)cc3s2)co1 [Example 254, 1-(2-(4-(2-tert-Butyloxazol-4-yl)-5-fluoro-7-hydroxy-3,3-dimethylindolin-1-yl)phenyl)-3-(6-fluorobenzo[d]thiazol-2-yl)urea] | 13.7 | 0.87 | –
9 | CC(C)c1noc(-c2c(F)cc(O)c3c2C(C)(C)CN3c2ccccc2NC(=O)Nc2ccc(OC(F)(F)F)cc2)n1 [Example 256, 1-(2-(5-Fluoro-7-hydroxy-4-(3-isopropyl-1,2,4-oxadiazol-5-yl)-3,3-dimethylindolin-1-yl)phenyl)-3-(4-(trifluoromethoxy)phenyl)urea] | 6.6 | 0.76 | –
10 | CC1(C)CN(c2ccccc2NC(=O)Nc2nc3ccc(Cl)nc3s2)c2c(O)cc(F)c(-c3noc(C(F)(F)F)n3)c21 [Example 257, 1-(5-Chlorothiazolo[5,4-b]pyridin-2-yl)-3-(2-(5-fluoro-7-hydroxy-3,3-dimethyl-4-(5-(trifluoromethyl)-1,2,4-oxadiazol-3-yl)indolin-1-yl)phenyl)urea] | 86.2 | 0.29 | –
11 | CC(C)c1nc(-c2c(F)cc(O)c3c2C(C)(C)CN3c2ccccc2NC(=O)Nc2ccc(OC(F)(F)F)cc2)co1 [Example 258, 1-(2-(5-Fluoro-7-hydroxy-4-(2-isopropyloxazol-4-yl)-3,3-dimethylindolin-1-yl)phenyl)-3-(4-(trifluoromethoxy)phenyl)urea] | 7.5 | 0.52 | –
12 | CC(C)(C)c1nc(-c2c(F)cc(O)c3c2C(C)(C)CN3c2ccccc2NC(=O)Nc2ccc(OC(F)(F)F)cc2)co1 [Example 259, 1-(2-(4-(2-(tert-Butyl)oxazol-4-yl)-5-fluoro-7-hydroxy-3,3-dimethylindolin-1-yl)phenyl)-3-(4-(trifluoromethoxy)phenyl)urea] | 46.3 | 0.58 | –
13 | CC(C)Cc1nc(-c2c(F)cc(O)c3c2C(C)(C)CN3c2ccccc2NC(=O)Nc2ccc(OC(F)(F)F)cc2)co1 [Example 260, 1-(2-(5-Fluoro-7-hydroxy-4-(2-isobutyloxazol-4-yl)-3,3-dimethylindolin-1-yl)phenyl)-3-(4-(trifluoromethoxy)phenyl)urea] | 18.8 | 0.4 | –
14 | CC1(C)CN(c2ccccc2NC(=O)Nc2ccc(OC(F)(F)F)cc2)c2c(O)cc(F)c(-c3ccno3)c21 [Example 261, 1-(2-(5-Fluoro-7-hydroxy-4-(isoxazol-5-yl)-3,3-dimethylindolin-1-yl)phenyl)-3-(4-(trifluoromethoxy)phenyl)urea] | 5.5 | 1.99 | –
15 | CC1(C)CN(c2ccccc2NC(=O)Nc2ccc(OC(F)(F)F)cc2)c2c(O)cc(F)c(-c3cc(C(F)(F)F)no3)c21 [Example 262, 1-(2-(5-Fluoro-7-hydroxy-3,3-dimethyl-4-(3-(trifluoromethyl)isoxazol-5-yl)indolin-1-yl)phenyl)-3-(4-(trifluoromethoxy)phenyl)urea] | 12.9 | 0.92 | –
16 | CC1(C)CN(c2ccccc2NC(=O)Nc2nc3ccc(Cl)nc3s2)c2c(O)cc(F)c(-c3cc(C(F)(F)F)no3)c21 [Example 263, 1-(5-Chlorothiazolo[5,4-b]pyridin-2-yl)-3-(2-(5-fluoro-7-hydroxy-3,3-dimethyl-4-(3-(trifluoromethyl)isoxazol-5-yl)indolin-1-yl)phenyl)urea] | 20.5 | 0.84 | –
17 | CC1(C)CN(c2ccccc2NC(=O)Nc2nc3ccc(F)cc3s2)c2c(O)cc(F)c(-c3cc(C(F)(F)F)no3)c21 [Example 264, 1-(2-(5-Fluoro-7-hydroxy-3,3-dimethyl-4-(3-(trifluoromethyl)isoxazol-5-yl)indolin-1-yl)phenyl)-3-(6-fluorobenzo[d]thiazol-2-yl)urea] | – | 0.62 | 18.2
18 | CC1(C)CN(c2ccccc2NC(=O)Nc2nc3ccc(Cl)cc3s2)c2c(O)cc(F)c(-c3cc(C(F)(F)F)no3)c21 [Example 265, 1-(6-Chlorobenzo[d]thiazol-2-yl)-3-(2-(5-fluoro-7-hydroxy-3,3-dimethyl-4-(3-(trifluoromethyl)isoxazol-5-yl)indolin-1-yl)phenyl)urea] | 49.9 | 0.4 | –
19 | CC(C)n1nc(-c2c(F)cc(O)c3c2C(C)(C)CN3c2ccccc2NC(=O)Nc2nc3ccc(Cl)cc3s2)cc1C(F)(F)F [Example 266, 1-(6-Chlorobenzo[d]thiazol-2-yl)-3-(2-(5-fluoro-7-hydroxy-4-(1-isopropyl-5-(trifluoromethyl)-1H-pyrazol-3-yl)-3,3-dimethylindolin-1-yl)phenyl)urea] | 41.1 | 0.13 | –
20 | CC(C)n1nc(C(F)(F)F)cc1-c1c(F)cc(O)c2c1C(C)(C)CN2c1ccccc1NC(=O)Nc1nc2ccc(F)cc2s1 [Example 267, 1-(2-(5-Fluoro-7-hydroxy-4-(1-isopropyl-3-(trifluoromethyl)-1H-pyrazol-5-yl)-3,3-dimethylindolin-1-yl)phenyl)-3-(6-fluorobenzo[d]thiazol-2-yl)urea] | 16.4 | 0.51 | –
21 | CC(C)n1nc(C(F)(F)F)cc1-c1c(F)cc(O)c2c1C(C)(C)CN2c1ccccc1NC(=O)Nc1nc2ccc(Cl)cc2s1 [Example 268, 1-(6-Chlorobenzo[d]thiazol-2-yl)-3-(2-(5-fluoro-7-hydroxy-4-(1-isopropyl-3-(trifluoromethyl)-1H-pyrazol-5-yl)-3,3-dimethylindolin-1-yl)phenyl)urea] | 18.1 | 0.45 | –
22 | CC1(C)CN(c2ccccc2NC(=O)Nc2csc(Cl)n2)c2c(O)cc(F)c(-c3cc(C(F)(F)F)no3)c21 [Example 269, 1-(2-Chlorothiazol-4-yl)-3-(2-(5-fluoro-7-hydroxy-3,3-dimethyl 4-(3-(trifluoromethyl)isoxazol-5-yl)indolin-1-yl)phenyl)urea] | 1.2 | 0.39 | –
23 | CC(C)(C)c1nc(-c2c(F)cc(O)c3c2C(C)(C)CN3c2ccccc2NC(=O)Nc2nc3ccc(Cl)cc3s2)co1 [Example 270, 1-(2-(4-(2-(tert-Butyl)oxazol-4-yl)-5-fluoro-7-hydroxy-3,3-dimethylindolin-1-yl)phenyl)-3-(6-chlorobenzo[d]thiazol-2-yl)urea] | 17.3 | 0.43 | –
24 | CC(C)n1nc(-c2c(F)cc(O)c3c2C(C)(C)CN3c2ccccc2NC(=O)Nc2ccc(OC(F)(F)F)cc2)cc1C(F)(F)F [Example 271, 1-(2-(5-Fluoro-7-hydroxy-4-(1-isopropyl-5-(trifluoromethyl)-1H-pyrazol-3-yl)-3,3-dimethylindolin-1-yl)phenyl)-3-(4-(trifluoromethoxy)phenyl)urea] | 12.4 | 0.07 | –
25 | CC(C)n1nc(-c2c(F)cc(O)c3c2C(C)(C)CN3c2ccccc2NC(=O)Nc2csc(C(F)(F)F)n2)cc1C(F)(F)F [Example 272, 1-(2-(5-Fluoro-7-hydroxy-4-(1-isopropyl-5-(trifluoromethyl)-1H-pyrazol-3-yl)-3,3-dimethylindolin-1-yl)phenyl)-3-(2-(trifluoromethyl)thiazol-4-yl)urea] | 16.7 | 0.18 | –
